Values joined by “and” are separate entries in the source; they are usually repeats but may differ in a detail not shown here. Identical values can stand only once.
System: not listed separately
Assay: Sulforhodamine B (SRB) cytotoxicity assay
Format: cell-based
Details: human, Huh-7.5 cells
Protocol: Huh7.5 cells were grown in the DMEM/F12 (2:1) medium supplemented with 10% FBS (BioSera, Cholet, France), 2 mM L-glutamine, 100 U/mL penicillin, and 100 µg/mL streptomycin in the presence of 5% CO2 at 37 °C. Cells were re-seeded every three days at a ratio of 1:3 or 1:5. After an incubation period, cell monolayers were fixed with 10% (w/v) trichloroacetic acid and stained for 30 min by adding 100 µL of 0.057% (w/v) SRB solution to each well, after which the excess dye is removed by washing repeatedly with 1% (v/v) acetic acid. The protein-bound dye is dissolved in 10 mM Tris-base solution with pH 10.5 for OD determination using a Tecan Spark multimode microplate reader via absorbance at 510 nm.

Q: With `Oc1c(N/N=C/c2ccccc2)ccc2cccnc12` [Compound I, 7-(2-Benzylidenohydrazinyl)-8-hydroxyquinoline] as the compound, how does the CC50 read?
A: 59.5 ± 12.5 µM

Q: For `O=[N+]([O-])c1ccc(/C=N/Nc2ccc3cccnc3c2O)cc1` [II, 7-(4-Nitrobenzylidenohydrazinyl)-8-hydroxyquinoline], which CC50 is on record?
A: 8 ± 0.1 µM

Q: Which CC50 does the source give for `O=[N+]([O-])c1cccc(/C=N/Nc2ccc3cccnc3c2O)c1` [III, 7-(3-Nitrobenzylidenohydrazinyl)-8-hydroxyquinoline] here?
A: 7.1 ± 0.4 µM

Q: Which CC50 does the source give for `COc1ccc(/C=N/Nc2ccc3cccnc3c2O)cc1` [IV, 7-(4-Methoxybenzylidenohydrazinyl)-8-hydroxyquinoline] here?
A: 40 ± 0.2 µM

Q: For `Oc1c(N/N=C/c2ccc(Br)c(Br)c2)ccc2cccnc12` [V, 7-(3,4-Dibromobenzylidenohydrazinyl)-8-hydroxyquinoline], which CC50 is on record?
A: 6.9 ± 0.3 µM

Q: Which CC50 does the source give for `Oc1c(N/N=C/c2ccc(F)cc2)ccc2cccnc12` [VI, 7-(4-Fluorobenzylidenohydrazinyl)-8-hydroxyquinoline] here?
A: 7 ± 0.2 µM

Target: T1, recombinant HIV-1 Integrase (strand transfer) (Human immunodeficiency virus type 1 group M subtype B, UniProt P04585)
T1 construct: The recombinant HIV-1 Integrase (In) was isolated from the Rosetta Escherichia coli producer strain; made in house; host or cells: Escherichia coli Rosetta
Assay: HIV integrase strand transfer inhibition
Format: biochemical
Details: not given
Protocol: The recombinant HIV-1 Integrase (In) was isolated from the Rosetta Escherichia coli producer strain and purified without the addition of a detergent as described previously. Radioactive ^32P label was introduced at the 5′-end of the oligonucleotide. Testing of the compounds was performed according to the previously published procedure. Briefly: 5 nM ^32P-labeled 21 mer DNA duplex (5′-[…]-3′ and 5′-[…]-3′) for 3′-processing reaction or 10 nM 19/21 mer DNA duplex (5′-[…]-3′ and 5′-[…]-3′) for strand transfer was incubated in 20 µL of the buffer (20 mM HEPES, pH 7.2, 7.5 mM MgCl2, 1 mM DTT) in the presence of 100 nM integrase and increasing concentrations of the inhibitor at 37 °C for 2 h. The reaction products were assayed by 20% polyacrylamide gel electrophoresis (PAGE) with 7 M urea. The result was visualized by radioautography on a Typhoon FLA 9500 PhosphorImager (GE Healthcare Technologies, Chicago, IL, USA). The counting of radioautograms was performed using QuantityOne 4.6.6 software (Bio-Rad, Hercules, CA, USA). Calculation of IC50 parameters was carried out by Prism 8.0.1 software (GraphPad Software, San-Diego, CA, USA).

Q: Which “inhibition of strand transfer, in words” value does the source give for `Oc1c(N/N=C/c2ccccc2)ccc2cccnc12` [Compound I, 7-(2-Benzylidenohydrazinyl)-8-hydroxyquinoline] here?
A: weak activity

Q: With `O=[N+]([O-])c1ccc(/C=N/Nc2ccc3cccnc3c2O)cc1` [II, 7-(4-Nitrobenzylidenohydrazinyl)-8-hydroxyquinoline] as the compound, how does the “inhibition of strand transfer, in words” value read?
A: ineffective

Q: Which “inhibition of strand transfer, in words” value does the source give for `O=[N+]([O-])c1cccc(/C=N/Nc2ccc3cccnc3c2O)c1` [III, 7-(3-Nitrobenzylidenohydrazinyl)-8-hydroxyquinoline] here?
A: weak activity

Q: With `COc1ccc(/C=N/Nc2ccc3cccnc3c2O)cc1` [IV, 7-(4-Methoxybenzylidenohydrazinyl)-8-hydroxyquinoline] as the compound, how does the “inhibition of strand transfer, in words” value read?
A: weak activity

Q: Which “inhibition of strand transfer, in words” value does the source give for `Oc1c(N/N=C/c2ccc(Br)c(Br)c2)ccc2cccnc12` [V, 7-(3,4-Dibromobenzylidenohydrazinyl)-8-hydroxyquinoline] here?
A: ineffective

Same assay, conditions: 100 nM integrase, 37 °C, 2 h

Q: With `Oc1c(N/N=C/c2ccccc2)ccc2cccnc12` [Compound I, 7-(2-Benzylidenohydrazinyl)-8-hydroxyquinoline] as the compound, how does the IC50 read?
A: 160 ± 50 µM

Q: With `O=[N+]([O-])c1ccc(/C=N/Nc2ccc3cccnc3c2O)cc1` [II, 7-(4-Nitrobenzylidenohydrazinyl)-8-hydroxyquinoline] as the compound, how does the IC50 read?
A: > 200 µM

Q: With `O=[N+]([O-])c1cccc(/C=N/Nc2ccc3cccnc3c2O)c1` [III, 7-(3-Nitrobenzylidenohydrazinyl)-8-hydroxyquinoline] as the compound, how does the IC50 read?
A: 190 ± 60 µM

Q: Which IC50 does the source give for `COc1ccc(/C=N/Nc2ccc3cccnc3c2O)cc1` [IV, 7-(4-Methoxybenzylidenohydrazinyl)-8-hydroxyquinoline] here?
A: 150 ± 50 µM

Q: For `Oc1c(N/N=C/c2ccc(Br)c(Br)c2)ccc2cccnc12` [V, 7-(3,4-Dibromobenzylidenohydrazinyl)-8-hydroxyquinoline], which IC50 is on record?
A: > 200 µM

Q: With `Oc1c(N/N=C/c2ccc(F)cc2)ccc2cccnc12` [VI, 7-(4-Fluorobenzylidenohydrazinyl)-8-hydroxyquinoline] as the compound, how does the IC50 read?
A: ~40 µM and 40 µM

System: P. aeruginosa ATCC 27853
Assay: MIC by twofold serial dilution, P. aeruginosa
Format: cell-based
Details: Pseudomonas aeruginosa, ATCC27853; 24 h, 37 °C; read-out: MIC (Mean ± SE) P. aeruginosa ATCC 27853
Protocol: (§1) Candida albicans ATCC 10231, Pseudomonas aeruginosa ATCC 27853, and Staphylococcus aureus ATCC 29213 strains were obtained from the American Type Culture Collection (ATCC; Rockville, MD, USA). The subculture and inoculum preparation were performed according to CLSI M27-A3 for C. albicans on yeast extract peptone dextrose (YPD) agar (HiMedia, Mumbai, Maharashtra, India) and RPMI-1640 medium (PanEco, Moscow, Russia) with MOPS (3-(N-morpholino) propanesulfonic acid, >99.5%; PanEco, Moscow, Russia), and M7-A11 for P. aeruginosa and S. aureus on Mueller-Hinton agar (MHA; HiMedia, Mumbai, Maharashtra, India) and Mueller-Hinton broth (MHB; HiMedia, Mumbai, Maharashtra, India). The stock cell concentrations of fungus and bacteria were 1 × 10^6 and 1 × 10^8 cells/mL, respectively. A working suspension of C. albicans (5.0 × 10^2 cells/mL) was prepared by two-step dilution of the broth concentration with the RPMI-1640 medium. Assay suspensions of P. aeruginosa and S. aureus (1.0 × 10^6 cells/mL) were prepared by diluting the concentration with Mueller-Hinton broth (HiMedia, Mumbai, Maharashtra, India). Amphotericin B (Sigma-Aldrich, Burlington, MA, USA) and gentamicin (Sigma-Aldrich, Burlington, MA, USA) were used as secondary pharmaceutical standards.
(§2) The minimum inhibitory concentration (MIC) was determined by the twofold serial dilution method, according to CLSI M27-A3 [33] and M07-A11 [34], in three independent experiments with four replicates each. Amphotericin B was used as a positive control for fungus; gentamicin was used as a positive control for bacteria. Stock solutions except gentamicin were prepared in DMSO at a concentration of 6400 μg/mL. Gentanicin was solubilized in sterile water at a concentration of 1280 μg/mL. Stock solutions of the tested substances were diluted to the final concentrations in the assay medium and 100 μL of each sample was added to the wells of 96-well plates, and then 100 μL of inoculum was added. Rows 11 and 12 were left for the negative control (medium with inoculum without the drug) and sterility control. The plates were incubated for 24 h at 35 °C in the case of C. albicans and at 37 °C in the case of P. aeruginosa and S. aureus. The tested concentration for gentamicin ranged from 0.0625 to 32 μg/mL; for other compounds, it ranged from 0.125 to 64 μg/mL. The MIC value was determined using spectrophotometer. The MIC was taken to be the lowest drug concentration that caused complete inhibition of microorganism growth compared to the control. The final MIC values were reported as the means with standard error (SE). Standard errors for µg/mL values less than 0.01 were excluded; standard errors for µM values less than 0.1 were excluded (Table 3).

Q: With `Oc1c(N/N=C/c2ccccc2)ccc2cccnc12` [Compound I, 7-(2-Benzylidenohydrazinyl)-8-hydroxyquinoline] as the compound, how does the MIC read?
A: > 64 µg/mL and > 243 µM

Q: For `O=[N+]([O-])c1ccc(/C=N/Nc2ccc3cccnc3c2O)cc1` [II, 7-(4-Nitrobenzylidenohydrazinyl)-8-hydroxyquinoline], which MIC is on record?
A: > 64 µg/mL and > 208 µM

Q: For `O=[N+]([O-])c1cccc(/C=N/Nc2ccc3cccnc3c2O)c1` [III, 7-(3-Nitrobenzylidenohydrazinyl)-8-hydroxyquinoline], which MIC is on record?
A: > 64 µg/mL and > 208 µM

Q: For `COc1ccc(/C=N/Nc2ccc3cccnc3c2O)cc1` [IV, 7-(4-Methoxybenzylidenohydrazinyl)-8-hydroxyquinoline], which MIC is on record?
A: > 64 µg/mL and > 218 µM

Q: With `Oc1c(N/N=C/c2ccc(Br)c(Br)c2)ccc2cccnc12` [V, 7-(3,4-Dibromobenzylidenohydrazinyl)-8-hydroxyquinoline] as the compound, how does the MIC read?
A: > 64 µg/mL and > 152 µM

Q: With `Oc1c(N/N=C/c2ccc(F)cc2)ccc2cccnc12` [VI, 7-(4-Fluorobenzylidenohydrazinyl)-8-hydroxyquinoline] as the compound, how does the MIC read?
A: > 64 µg/mL and > 228 µM

System: C. albicans ATCC 10231
Assay: MIC by twofold serial dilution, C. albicans
Format: cell-based
Details: Candida albicans, ATCC10231; 24 h, 35 °C; read-out: MIC (Mean ± SE) C. albicans ATCC 10231
Protocol: as §1, §2

Q: Which MIC does the source give for `Oc1c(N/N=C/c2ccccc2)ccc2cccnc12` [Compound I, 7-(2-Benzylidenohydrazinyl)-8-hydroxyquinoline] here?
A: 4 µg/mL and 15.2 µM

Q: Which MIC does the source give for `O=[N+]([O-])c1ccc(/C=N/Nc2ccc3cccnc3c2O)cc1` [II, 7-(4-Nitrobenzylidenohydrazinyl)-8-hydroxyquinoline] here?
A: 13 µM and 4 µg/mL

Q: Which MIC does the source give for `O=[N+]([O-])c1cccc(/C=N/Nc2ccc3cccnc3c2O)c1` [III, 7-(3-Nitrobenzylidenohydrazinyl)-8-hydroxyquinoline] here?
A: 11.3 µg/mL and 36.8 µM

Q: With `COc1ccc(/C=N/Nc2ccc3cccnc3c2O)cc1` [IV, 7-(4-Methoxybenzylidenohydrazinyl)-8-hydroxyquinoline] as the compound, how does the MIC read?
A: 8 µg/mL and 27.3 µM

Q: Which MIC does the source give for `Oc1c(N/N=C/c2ccc(Br)c(Br)c2)ccc2cccnc12` [V, 7-(3,4-Dibromobenzylidenohydrazinyl)-8-hydroxyquinoline] here?
A: 15.3 µg/mL and 36.3 µM

Q: Which MIC does the source give for `Oc1c(N/N=C/c2ccc(F)cc2)ccc2cccnc12` [VI, 7-(4-Fluorobenzylidenohydrazinyl)-8-hydroxyquinoline] here?
A: 3.8 µg/mL and 13.6 µM

From publication PMC12428554, “Anti-HIV and Antimicrobial Activity of 7-Hydrazino-8-hydroxyquinoline-Based Aromatic Hydrazones” (International Journal of Molecular Sciences, 2025)
